Data taken from patent publication US10280163B2 (BeiGene, Ltd., priority 2015, dated 2019).
Read-outs that look alike come from different tables or passages of the source.

What was measured:
Recombinant TDO = target: T1, Recombinant TDO (Homo sapiens, UniProt P48775); experiment: TDO enzymatic assay; format: biochemical; settings: 100 nM TDO, 0.5 mM L-tryptophan, read-out: Enzyme IC50 (nM) TDO
T1 construct: His tag (C); made in house; host or cells: E. coli
Description: Recombinant TDO was overexpressed and purified from E. coli cells with a C-terminal His tag. TDO enzymatic assay was performed using the same methodology as IDO1 enzymatic assay except that 100 nM TDO and 0.5 mM L-tryptophan (Km concentration) were used in the TDO assay.

[1] = target: T2, cellular IDO1 in HeLa cells (Homo sapiens, UniProt P14902); experiment: HeLa cell-based IDO1 Kyn (kynurenine) production assay; settings: Table 1, 5-substituted imidazo[1,5-a]pyridines, IFN-γ 100 ng/mL, 48 hours
T2 construct: endogenous in cells; host or cells: HeLa cells (American Type Tissue Culture Collection), induced with human recombinant IFN-γ
Summary of the method: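 IFN-γ-induced HeLa cells (100 ng/mL) in phenol red-free DMEM with 0.4 mM L-Trp, compounds added together with IFN-γ, 48 h at 37 °C. Supernatant Kyn read at 480 nm after TCA precipitation and 4-(dimethylamino)benzaldehyde reaction. IC50 from four-parameter logistic fit.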

Recombinant IDO1 = target: T3, Recombinant IDO1 (Homo sapiens, UniProt P14902); experiment: IDO1 enzymatic assay; format: biochemical; settings: 50 nM IDO1, 1.3 mM D-tryptophan, read-out: Enzyme IC50 (nM) IDO1
T3 construct: His tag (N); made in house; host or cells: E. coli
Summary of the method: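 N-terminally His-tagged enzyme from E. coli (50 nM) was incubated with compound, 1.3 mM D-tryptophan, 5 mM ascorbate, 6.25 μM methylene blue and 0.4 mg/mL catalase in 50 mM potassium phosphate pH 7.5, 0.1% BSA for 1.5 h at 24° C. N′-formylkynurenine formation was followed at 321 nm for 1 h; IC50 from rate slopes.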

[2] = Table 1, 5-substituted imidazo[1,5-a]pyridines
[3] = Table 2, 8-substituted imidazo[1,5-a]pyridines

T1 sequence (P48775 whole entry): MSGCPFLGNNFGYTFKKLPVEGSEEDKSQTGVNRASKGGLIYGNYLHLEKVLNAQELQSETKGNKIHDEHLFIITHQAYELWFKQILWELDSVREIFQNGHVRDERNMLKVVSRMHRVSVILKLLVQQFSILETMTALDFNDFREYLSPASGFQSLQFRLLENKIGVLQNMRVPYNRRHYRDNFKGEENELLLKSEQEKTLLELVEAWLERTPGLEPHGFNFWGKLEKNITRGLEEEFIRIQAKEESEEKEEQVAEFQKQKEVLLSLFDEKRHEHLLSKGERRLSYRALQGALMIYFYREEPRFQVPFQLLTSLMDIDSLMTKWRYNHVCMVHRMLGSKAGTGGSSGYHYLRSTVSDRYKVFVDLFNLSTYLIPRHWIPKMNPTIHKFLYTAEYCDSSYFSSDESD
T3 sequence (P14902 whole entry): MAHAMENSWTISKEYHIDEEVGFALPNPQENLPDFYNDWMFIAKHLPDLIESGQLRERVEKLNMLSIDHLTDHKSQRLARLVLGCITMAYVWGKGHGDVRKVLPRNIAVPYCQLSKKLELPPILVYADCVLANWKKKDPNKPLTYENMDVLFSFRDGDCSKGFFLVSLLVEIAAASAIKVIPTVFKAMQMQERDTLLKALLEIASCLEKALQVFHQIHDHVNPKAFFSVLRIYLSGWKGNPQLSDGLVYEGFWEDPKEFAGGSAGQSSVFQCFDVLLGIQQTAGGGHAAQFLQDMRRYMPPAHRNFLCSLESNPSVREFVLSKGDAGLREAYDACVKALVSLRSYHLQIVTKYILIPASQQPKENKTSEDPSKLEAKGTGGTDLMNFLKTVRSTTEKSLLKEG
T2 sequence (P14902 whole entry): as above

SMILES	IC50 (Recombinant TDO; [2])	EC50 [1]	IC50 (Recombinant IDO1; [2])	IC50 (Recombinant TDO; [3])	IC50 (Recombinant IDO1; [3])
OC(c1cccc2cncn12)C1CCCCC1 (single isomer, unassigned) [Example A001a]	610 nM	> 10000 nM	41 nM	–	–
OC(CC1CCCCC1)c1cc(Cl)cc2cncn12 (single isomer, unassigned) [Example A102a]	73 nM	346 nM	15 nM	–	–
OC(CC1CCCCC1)c1cc(Cl)cc2cncn12 (single isomer, unassigned) [Example A102b]	1200 nM	> 10000 nM	510 nM	–	–
OC(c1cc(C(F)(F)F)cc2cncn12)C1CCCCC1 (single isomer, unassigned) [Example A109a]	97 nM	2100 nM	15 nM	–	–
OC(c1cc(C(F)(F)F)cc2cncn12)C1CCCCC1 (single isomer, unassigned) [Example A109b]	1200 nM	> 10000 nM	1400 nM	–	–
OC(CC1CCCCC1)c1cc(C(F)(F)F)cc2cncn12 (single isomer, unassigned) [Example A114a]	2600 nM	> 10000 nM	890 nM	–	–
OC(CC1CCCCC1)c1cc(C(F)(F)F)cc2cncn12 (single isomer, unassigned) [Example A114b]	170 nM	5430 nM	74 nM	–	–
OC(c1c(Cl)ccc2cncn12)C1CCCCC1 (single isomer, unassigned) [Example A116a]	610 nM	270 nM	11 nM	–	–
OC(c1c(Cl)ccc2cncn12)C1CCCCC1 (single isomer, unassigned) [Example A116b]	67000 nM	> 10000 nM	4800 nM	–	–
OC(CC1CCCCC1)c1c(Cl)ccc2cncn12 (single isomer, unassigned) [Example A117a]	4100 nM	92 nM	11 nM	–	–
OC(CC1CCCCC1)c1c(Cl)ccc2cncn12 (single isomer, unassigned) [Example A117b]	35000 nM	> 10000 nM	1600 nM	–	–
OC(c1c(Br)ccc2cncn12)C1CCCCC1 (single isomer, unassigned) [Example A118a]	1700 nM	346 nM	14 nM	–	–
OC(c1c(Br)ccc2cncn12)C1CCCCC1 (single isomer, unassigned) [Example A118b]	53000 nM	> 10000 nM	1600 nM	–	–
O[C@@H](c1cc(Cl)cc2cncn12)C1CCCCC1 [Example A101b, (R)-(7-chloroimidazo[1,5-a]pyridin-5-yl)(cyclohexyl)methanol]	230 nM	–	890 nM	–	–
OC(CC1CCCCC1)c1cc(C(F)(F)F)cc2cncn12 (stereo not shown) [Example A114, 2-cyclohexyl-1-(7-(trifluoromethyl)imidazo[1,5-a]pyridin-5-yl)ethan-1-ol]	420 nM	–	260 nM	–	–
OC(c1c(C(F)(F)F)ccc2cncn12)C1CC1 (stereo not shown) [Example A132, cyclopropyl(6-(trifluoromethyl)imidazo[1,5-a]pyridin-5-yl)methanol]	75000 nM	–	210 nM	–	–
OC(c1c(Cl)c(Br)cc2cncn12)C1CC1 (stereo not shown) [Example A150, (7-bromo-6-chloroimidazo[1,5-a]pyridin-5-yl)(cyclooropyl)methanol]	200 nM	–	130 nM	–	–
OC(c1c(Cl)c(C(F)(F)F)cc2cncn12)C1CCCCC1 (stereo not shown) [Example A155, (6-chloro-7-(trifluoromethyl)imidazo[1,5-a]pyridin-5-Yl)(cyclohexyl)methanol]	1600 nM	–	1000 nM	–	–
OC(c1cccn2cncc12)C1CCCC1 (stereo not shown) [Example B002, Cyclopentyl(imidazo[1,5-a]pyridin-8-yl)methanol]	–	–	–	810 nM	2000 nM
OC(c1ccccc1)c1cccn2cncc12 (stereo not shown) [Example B004, Imidazo[1,5-a]pyridin-8-yl(phenyl)methanol]	–	–	–	3900 nM	17000 nM
OC(c1cccn2cncc12)C1CCCCCC1 (stereo not shown) [Example B005, Cycloheptyl(imidazo[1,5-a]pyridin-8-yl)methanol]	–	–	–	740 nM	990 nM
